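Each compound was tested at five concentrations against cells in 96-well plates for 48 hours. GI50 marks 50% less growth. TGI denotes the concentration required for complete inhibition of growth.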

Some test systems named below: SF-268 CNS; HCC-2998 colon; HCT-15 colon; RXF 393 renal; UACC-62 melanoma; TK-10 renal; BT-549 breast; OVCAR-8 ovarian; MCF7 breast; SF-539 CNS.
Holding throughout (experiment): growth of human tumour cells (NCI), 48 h

As for `C=CC[PH+](c1ccccc1)c1ccccc1.C=CC[PH+](c1ccccc1)c1ccccc1.[Cl][Pt][Cl]`, the GI50 is 14.2 µM in the experiment on SF-268 CNS; 15 µM in the experiment with HCC-2998 colon; 3.87 µM with HCT-15 colon; 3.33 µM in the experiment with RXF 393 renal; 5.88 µM with UACC-62 melanoma; 13.4 µM in the experiment on TK-10 renal. The GI50 was 17.1 µM in the experiment with BT-549 breast, 5.25 µM in the experiment on OVCAR-8 ovarian, 5.62 µM in the experiment with MCF7 breast and 13.2 µM in the experiment with SF-539 CNS. For the same molecule, the TGI in the experiment with SF-268 CNS was found to be 32 µM; in the experiment with HCC-2998 colon it was 29.9 µM; with HCT-15 colon, 16.8 µM; in the experiment on RXF 393 renal, 9.82 µM; in the experiment on UACC-62 melanoma, 19.5 µM; in the experiment on TK-10 renal it was 32.7 µM. Besides, the TGI turned out to be 35.4 µM in the experiment on BT-549 breast, 31.5 µM with OVCAR-8 ovarian, 24.4 µM with MCF7 breast and 26.3 µM in the experiment with SF-539 CNS.
As for `CC1(C)CC2(C)OC2C2(C1)N=NC(=Nc1ccccc1)O2` (centres undefined), the GI50 was 4.9 µM with SF-268 CNS; 13.2 µM in the experiment with HCC-2998 colon; 1.68 µM with HCT-15 colon; 2.19 µM with RXF 393 renal; 3.76 µM in the experiment with UACC-62 melanoma; 3.44 µM in the experiment on TK-10 renal. Also, the GI50 in the experiment on BT-549 breast was 2.22 µM; in the experiment with OVCAR-8 ovarian, 2.9 µM; in the experiment on MCF7 breast it was 1.81 µM; in the experiment on SF-539 CNS it was 7.94 µM. The TGI with SF-268 CNS is 19.1 µM; with HCC-2998 colon it was 26.6 µM; with HCT-15 colon, 4.62 µM; with RXF 393 renal it was 6.26 µM; in the experiment on UACC-62 melanoma it was 16 µM; with TK-10 renal, 8.31 µM. In addition, the TGI with BT-549 breast was 4.99 µM; in the experiment on OVCAR-8 ovarian, over 100 µM; in the experiment on MCF7 breast, 13.2 µM; in the experiment on SF-539 CNS it was 20.9 µM.
Consider `C=C(C)[C@@H]1CCC[C@]2(C(=O)O)CC[C@]3(C)[C@@H](CC[C@@H]4[C@@]5(C)C/C(=C/c6ccncc6)C(=O)C(C)(C)[C@@H]5CC[C@]43C)[C@@H]12`, for which the GI50 was 3.81 µM in the experiment on SF-268 CNS; 1.94 µM with HCC-2998 colon; 1.85 µM in the experiment on HCT-15 colon; 2.09 µM with RXF 393 renal; 2.05 µM with UACC-62 melanoma; 3.6 µM in the experiment with TK-10 renal. Further, the GI50 in the experiment on BT-549 breast was 2.1 µM; with OVCAR-8 ovarian, 3.07 µM; with MCF7 breast it was 2.77 µM; in the experiment with SF-539 CNS it was 2.7 µM. In addition, the TGI with SF-268 CNS stood at 91 µM; with HCC-2998 colon, 4.29 µM; with HCT-15 colon it was 4.31 µM; in the experiment on RXF 393 renal it was 4.47 µM; with UACC-62 melanoma, 5.68 µM; in the experiment on TK-10 renal, 29.4 µM. Moreover, the TGI is 6.21 µM with BT-549 breast, over 100 µM in the experiment with OVCAR-8 ovarian, 28.5 µM with MCF7 breast and 11.9 µM in the experiment on SF-539 CNS.
Consider `N#CC1(C#N)C2C=CC(C3CCC=C32)C1(C#N)C#N` (centres undefined), for which the TGI in the experiment with SF-268 CNS was over 10 µM; in the experiment with HCC-2998 colon, over 10 µM; in the experiment on HCT-15 colon, over 10 µM; in the experiment with RXF 393 renal it was over 10 µM; in the experiment on UACC-62 melanoma it was over 10 µM; in the experiment on TK-10 renal it was over 9.01 µM. Further, the TGI in the experiment with BT-549 breast, in the experiment on OVCAR-8 ovarian, with MCF7 breast and in the experiment on SF-539 CNS was over 10 µM each time.
As to `COc1ccc(S(=O)(=O)NCCNc2nccc(-c3c(-c4ccccc4)nc4sccn34)n2)cc1`, the GI50 is 3.74 µM in the experiment with SF-268 CNS; 16.1 µM in the experiment on HCC-2998 colon; 2.42 µM in the experiment on HCT-15 colon; 5.71 µM in the experiment with RXF 393 renal; 1.17 µM in the experiment with UACC-62 melanoma; 5.07 µM with TK-10 renal. Moreover, the GI50 in the experiment with BT-549 breast was 3.56 µM; with OVCAR-8 ovarian, 3.08 µM; in the experiment on MCF7 breast, 0.873 µM; in the experiment on SF-539 CNS it was 13.7 µM. Besides, the TGI was over 100 µM in the experiment on SF-268 CNS; over 100 µM in the experiment with HCC-2998 colon; over 100 µM with HCT-15 colon; 91 µM with RXF 393 renal; over 100 µM in the experiment with UACC-62 melanoma; over 100 µM in the experiment with TK-10 renal. In addition, the TGI in the experiment with BT-549 breast, in the experiment on OVCAR-8 ovarian, in the experiment on MCF7 breast and with SF-539 CNS was over 100 µM throughout.
In the case of `CCSc1nc(N)c2cnn(C)c2n1`, the GI50 in the experiment with SF-268 CNS was 33 µM; with HCC-2998 colon, 25.4 µM; in the experiment with HCT-15 colon, 32 µM; in the experiment with RXF 393 renal, 36.2 µM; with UACC-62 melanoma, 29.5 µM; in the experiment with TK-10 renal it was 34.1 µM. Further, the GI50 in the experiment on BT-549 breast is 42.9 µM; in the experiment with OVCAR-8 ovarian it was 49.4 µM; with MCF7 breast, 28 µM; with SF-539 CNS, 36.1 µM. Further, the TGI is 85.1 µM in the experiment with SF-268 CNS; 92.1 µM with HCC-2998 colon; over 100 µM in the experiment with HCT-15 colon; over 100 µM in the experiment on RXF 393 renal; 69.6 µM in the experiment on UACC-62 melanoma; over 100 µM with TK-10 renal. In addition, the TGI in the experiment on BT-549 breast, in the experiment with OVCAR-8 ovarian, in the experiment on MCF7 breast and in the experiment with SF-539 CNS was over 100 µM throughout.
As for `COc1ccc(N(Cc2cc(OC)c(OC)c(OC)c2)C2OC(=O)c3ccccc32)cc1` (centres undefined), the GI50 with SF-268 CNS was 0.882 µM; with HCC-2998 colon, 1.57 µM; in the experiment with HCT-15 colon, 0.424 µM; in the experiment on RXF 393 renal, 0.612 µM; with UACC-62 melanoma, 0.498 µM; in the experiment on BT-549 breast, 0.428 µM. Further, the results for the GI50 with OVCAR-8 ovarian, with MCF7 breast and in the experiment on SF-539 CNS were 0.779 µM, 0.386 µM and 0.317 µM, respectively. Moreover, the TGI with SF-268 CNS was over 100 µM; in the experiment on HCC-2998 colon, over 28.5 µM; with HCT-15 colon, over 100 µM; in the experiment with RXF 393 renal it was over 100 µM; in the experiment with UACC-62 melanoma, over 100 µM; with TK-10 renal it was over 100 µM. Besides, the TGI in the experiment with BT-549 breast was over 100 µM; with OVCAR-8 ovarian, over 100 µM; with MCF7 breast it was over 100 µM; in the experiment with SF-539 CNS it was 1.24 µM.
Take `COc1cc(C(=O)/C=C/c2c(C(F)(F)F)nc3sccn23)cc(OC)c1OC`: the GI50 is 1.74 µM with SF-268 CNS; 1.71 µM in the experiment with HCC-2998 colon; 1.8 µM in the experiment on HCT-15 colon; 2.02 µM in the experiment on RXF 393 renal; 1.52 µM with UACC-62 melanoma; 2.3 µM in the experiment on TK-10 renal. For the same molecule, the GI50 with BT-549 breast is 2.26 µM; in the experiment on OVCAR-8 ovarian it was 3.08 µM; in the experiment with MCF7 breast, 1.25 µM; in the experiment on SF-539 CNS it was 1.55 µM. Moreover, the TGI with SF-268 CNS was 3.57 µM; with HCC-2998 colon, 3.13 µM; with HCT-15 colon it was 5.39 µM; in the experiment with RXF 393 renal, 4.24 µM; with UACC-62 melanoma, 2.95 µM; in the experiment on TK-10 renal, 5.12 µM. The TGI amounted to 6.87 µM in the experiment with BT-549 breast, 22.6 µM in the experiment with OVCAR-8 ovarian, 3.33 µM in the experiment with MCF7 breast and 2.96 µM with SF-539 CNS.

Source of the values: PubChem BioAssay (NCI).
